US20060193916A1, “Formulations of peptides for periodontal and dental treatments” (Acologix, Inc., priority 2005, published 2006)

Key:
bone formation = settings: mice; cited from earlier work
[1] = test system: dentin and pulp tissue of teeth with deep class V preparations; test: Indirect pulp capping study in dogs (deep class V preparations in maxillary teeth)
Description: Deep class V preparations were made without penetrating the pulp cavity on the buccal (labial) side of 8 maxillary teeth (2 premolars and 1 molar on each side of the oral cavity in one canine) in 10-month old Beagle dogs. A radiograph was taken to confirm location of the pulp cavity. The cavities (defects) were drilled perpendicular to the tooth axis (pulp cavity). […] The solution was left in the dry cavity for 2 minutes after which the base of the cavity was covered with Vitrebond and the teeth were sealed with composite.
The solution was left in the dry cavity for 2 minutes after which the cavities were filled with cotton and sealed with Cavit. The dogs in Treatment group 2 were re-treated 3× a week for 1 week (the teeth on the left side) or for 2 weeks (the teeth on the right side). […] The solution was left in the dry cavity for 2 minutes after which the cavities were filled with cotton and sealed with Cavit.
The teeth in treatment group 3 were used as negative (saline) or positive (Dycal) controls. Two of the 4 teeth per animal that were used as negative controls were treated with 2 uL saline. The solution was left in the dry cavity for 2 minutes after which the base of the cavity was covered with Vitrebond and the teeth were sealed with composite. The other 2 teeth used as negative control were treated for 15 sec with Scotchbond Etchant (Single Bond adhesive system), washed with water, air dried and treated with 2 uL saline. The solution was left in the dry cavity for 2 minutes after which the base of the cavity was covered with Single Bond, cured with light and the teeth were sealed with composite. The 2 teeth per animal in treatment group 3 that were used as a positive control were treated with Dycal and sealed with composite using standard operating procedures.
After the specimens were received, the specimens were processed, decalcified and embedded in paraffin. The maxilla specimens were stained with Haematoxylin and eosin (H&E) for new dentin formation evaluation. For immunohistochemistry evaluations, the sections were stained with TUNEL assay for evaluation of apoptosis (score 0-4), and CD45 antibody for inflammation evaluations.
Histopathological assessment of the stained section was done without knowledge of treatment group. Qualitative observations included the analysis of the tooth and underlying bone, including any soft tissue, which may have come into contact with the test material formulation. Cellular infiltrates (score 0-16) and inflammatory responses (score 0-4) at the repair site and the soft tissues were also evaluated.

[2] = test system: primary mesenchimal stem cell culture; settings: in vitro; cited from earlier work
[3] = test system: alveolar bone extraction socket
Excerpt: One mandibular premolar per side was extracted. The intra-socket septae in the extraction socket were removed and the wound margins adapted.
Treatment Group I (10 dogs-5 per each time point 3 days and 28 days): • a.
Treatment Group 2 (10 dogs-5 per each time point 3 days and 28 days): • a.
Treatment Group 3 (6 dogs-3 per each time point 3 days and 28 days): • a. Right side: create gingival flap around #407; extract #407 (section with 7011); remove intra-socket septa with 5511; radiograph; measure socket depth; soak a collagen sponge in BMP2; apply collagen sponge to socket; close gingival flap with 4-0 maxon. • b. Left side; create gingival flap around #307; extract #307 (section with 701 l); remove intra-socket septa with 551 l; radiograph; measure socket depth; soak a collagen sponge in 100 μl of saline, apply collagen sponge to socket; close gingival flap with 4-0 maxon.
After the specimens were received, the specimens were processed, decalcified and embedded in paraffin. The mandible specimens were stained with Toluidine blue for osteoblast evaluations.
Histopathological assessment of the stained section was done without knowledge of treatment group. Qualitative observations included the analysis of the underlying bone, including any soft tissue, which may have come into contact with the test material formulation. Fibrous tissue encapsulation, cellular infiltrates and inflammatory responses at the repair site and the soft tissues were also evaluated.
Static histomorphometric analysis was performed on sections stained with toluidine blue stain to determine the percent area of bone in-growth present within the samples using an OsteoMeasure® image analysis system, and associate software (version 4.00c). The amount and quality of the newly formed bone was scored for 0-4, respectively, and evaluated collectively. Tissue reaction such as inflammation and presence of fibrous tissue were also evaluated using the respective scoring system.

human dental pulp cells = settings: cited from earlier work
bone fracture = settings: rats; local injection near the fracture site; cited from earlier work
osteoblastic cells = settings: comparable to growth factors such as BMP and IGF-1; cited from earlier work

TDLQERGDNDISPFSGDGQPFKD [AC-100]
in vitro and in vivo bone formation activities (bone formation): comparable to the same activities of fibroblast growth factor (FGF) | maximum stimulation of new dentin formation, relative to saline ([1]; 200 ug, 3 times per week for one week, day 28): 8 times | new dentin formation compared with Dycal ([1]; 28 days post surgery, highest two doses of AC-100 (20 ug and 200 ug), depending on the application schedule): comparable to or better than Dycal | new dentin formation ([1]; 28 days post surgery, versus saline negative control, single and multiple application schedules): dose dependent stimulation of new dentin formation | number of apoptotic cells in the pulp ([1]; both 3 and 28 days post surgery, almost all doses applied): dose dependently decreased the number of apoptotic cells | new dentin formation, multiple versus single application schedule ([1]; day 28): worked significantly better than the single application one | new dentin formation, single application ([1]; highest dose of AC-100, single application, comparable to Dycal): marginal activity | new dentin formation, sealing with Single Bond+composite versus Vitrebond+Composite ([1]; single application schedule, almost all doses of AC-100): worked markedly better than sealing with Vitrebond+Composite | apoptotic and necrotic cell death in the pulp cavities (study summary) ([1]; summary of Example 1): almost complete reduction of inflammatory reactions as well as apoptotic or necrotic cell death | inflammatory reactions in the pulp cavities (study summary) ([1]; summary of Example 1): almost complete reduction of inflammatory reactions | regeneration of new dentin in the defects (study summary) ([1]; summary of Example 1): superior regeneration of new dentin tissue | pulp tissue reaction at the highest dose ([1]; three days post surgery, 200 ug): completely abolishing the pulp reaction | pulp inflammation ([1]; three days post surgery, almost all doses applied): completely abolishing the pulp inflammation | pulp tissue reaction (inflammatory and fibrosis response) ([1]; three days post surgery, sealed with Single Bond or Vitrebond): dose dependent inhibition of the tissue reaction | proliferation and differentiation of the cells to osteoblasts [2]: dose dependently induce proliferation and differentiation | presence of connective tissue and provisional matrix in the defects ([3]; day 3 after the extraction): dose dependent increase | tissue reaction in the extraction sockets ([3]; day 3 after the extraction): dose dependent increase in tissue reaction | percentage of connective tissue in the defects versus saline ([3]; day 28): comparable | quality of the new bone formed in the defect ([3]; day 28): dose dependently increases the quality of the new bone | rate with which the defect is filled with new bone ([3]; day 28): dose dependently decreases the rate | inflammatory response versus saline control ([3]; dog, in vivo): no significant difference | bone growth, multiple re-applications versus single application ([3]; re-applied directly in the extraction sockets): not as effective as the single application regimen | bone growth (bone ingrowth) ([3]; single application at surgery, 1 mg and 10 mg on a collagen sponge, 28 days): caused stimulation of bone growth | proliferation and differentiation of human dental pulp cells (human dental pulp cells): potent activities on proliferation but not differentiation | bone fracture healing (bone fracture): stimulates bone fracture healing | proliferation and differentiation of osteoblastic cells (osteoblastic cells): potent activities on proliferation and differentiation of osteoblastic cells
